Data: patent publication US20250352608A1, “POLYPEPTIDES HAVING ANTI-INFLAMMATORY EFFECTS AND USES THEREOF” (OneSkin, Inc., priority 2020, published 2025)

Legend:
[1] = tested on: peripheral blood mononuclear cells (PBMCs); assay: PBMC mRNA of IFN-γ and IL-10 (RT-qPCR); format: cell-based, human; details: single agent, 5 days (Peptide 14 3.12 μM; rapamycin 100 nM; PHA 5 μg/mL)
Method: The effect of Peptide 14 on T cell activation was assessed by treating PBMCs stimulated with phytohaemagglutinin (PHA) with Peptide 14. PHA usually can trigger lymphocyte activation and cell division. PBMCs that were untreated with PHA or Peptide 14 served as negative control of lymphocyte activation. In the phytohaemagglutinin group, the PBMCs were activated with 5 μg/mL of PHA for 5 days. In the Peptide 14 and PHA group, the PBMCs were activated with 5 μg/mL of PHA and treated with 3.12 μM of Peptide 14 for 5 days. In the Peptide 14 group, the PBMCs were treated with 3.12 μM of Peptide 14 for 5 days. In the rapamycin group, the PBMCs were treated with 100 nM of rapamycin, a well-known immunosuppressive drug for 5 days. In the rapamycin+PHA group, the PBMCs were activated with 5 μg/mL of PHA and treated with 100 nM of rapamycin for 5 days. […] IFN-γ is typically produced in lymphocytes stimulated by PHA and may be used as marker of PBMC stimulation level. IL-10 is an anti-inflammatory cytokine. The cells from each of the experimental groups were processed for total RNA isolation, reverse transcription of the RNA and RT-qPCR. Data is represented as relative expression normalized to ubiquitous gene expression and untreated PBMC negative control.

[2] = tested on: peripheral blood mononuclear cells (PBMCs); assay: PBMC proliferation with PHA activation (MTT); format: cell-based, human; details: single agent, 5 days (Peptide 14 3.12 μM; rapamycin 100 nM; PHA 5 μg/mL)
Method: The effect of Peptide 14 on T cell activation was assessed by treating PBMCs stimulated with phytohaemagglutinin (PHA) with Peptide 14. PHA usually can trigger lymphocyte activation and cell division. PBMCs that were untreated with PHA or Peptide 14 served as negative control of lymphocyte activation. In the phytohaemagglutinin group, the PBMCs were activated with 5 μg/mL of PHA for 5 days. In the Peptide 14 and PHA group, the PBMCs were activated with 5 μg/mL of PHA and treated with 3.12 μM of Peptide 14 for 5 days. In the Peptide 14 group, the PBMCs were treated with 3.12 μM of Peptide 14 for 5 days. In the rapamycin group, the PBMCs were treated with 100 nM of rapamycin, a well-known immunosuppressive drug for 5 days. In the rapamycin+PHA group, the PBMCs were activated with 5 μg/mL of PHA and treated with 100 nM of rapamycin for 5 days. The viability and proliferation of PBMCs were analyzed by MTT assay. Briefly, after 5 days of treatment, the cells were incubated with […] MTT reagent for 4 hours. Then, 100 μL of DMSO was added into each well, and the absorbance was detected at 595 nm.

## phytohaemagglutinin [PHA]
[1]
  relative expression level of IFN-γ vs negative control: about 15 fold
  relative expression level of IL-10 (negative control = 1): near zero
[2]
  relative PBMC proliferation, % of negative control: about 130%
